Experimental data as given in patent publication US20190337924A1, “SUBSTITUTED HYDANTOIN AND THIOHYDANTOIN DERIVATIVES AS ANDROGEN RECEPTOR ANTAGONISTS” (Janssen Pharmaceutica NV, priority 2016, published 2019).
Where a name gives a salt, the structure may show the parent alone. Read-outs that look alike come from different tables or passages of the source.

Biological target: T1, F876L mutant Androgen Receptor (AR-F876L) (Homo sapiens, UniProt P10275, F877L)
T1 construct: expressed in transfected cells; host or cells: LNCaP
T1 sequence (P10275 1-920 F877L): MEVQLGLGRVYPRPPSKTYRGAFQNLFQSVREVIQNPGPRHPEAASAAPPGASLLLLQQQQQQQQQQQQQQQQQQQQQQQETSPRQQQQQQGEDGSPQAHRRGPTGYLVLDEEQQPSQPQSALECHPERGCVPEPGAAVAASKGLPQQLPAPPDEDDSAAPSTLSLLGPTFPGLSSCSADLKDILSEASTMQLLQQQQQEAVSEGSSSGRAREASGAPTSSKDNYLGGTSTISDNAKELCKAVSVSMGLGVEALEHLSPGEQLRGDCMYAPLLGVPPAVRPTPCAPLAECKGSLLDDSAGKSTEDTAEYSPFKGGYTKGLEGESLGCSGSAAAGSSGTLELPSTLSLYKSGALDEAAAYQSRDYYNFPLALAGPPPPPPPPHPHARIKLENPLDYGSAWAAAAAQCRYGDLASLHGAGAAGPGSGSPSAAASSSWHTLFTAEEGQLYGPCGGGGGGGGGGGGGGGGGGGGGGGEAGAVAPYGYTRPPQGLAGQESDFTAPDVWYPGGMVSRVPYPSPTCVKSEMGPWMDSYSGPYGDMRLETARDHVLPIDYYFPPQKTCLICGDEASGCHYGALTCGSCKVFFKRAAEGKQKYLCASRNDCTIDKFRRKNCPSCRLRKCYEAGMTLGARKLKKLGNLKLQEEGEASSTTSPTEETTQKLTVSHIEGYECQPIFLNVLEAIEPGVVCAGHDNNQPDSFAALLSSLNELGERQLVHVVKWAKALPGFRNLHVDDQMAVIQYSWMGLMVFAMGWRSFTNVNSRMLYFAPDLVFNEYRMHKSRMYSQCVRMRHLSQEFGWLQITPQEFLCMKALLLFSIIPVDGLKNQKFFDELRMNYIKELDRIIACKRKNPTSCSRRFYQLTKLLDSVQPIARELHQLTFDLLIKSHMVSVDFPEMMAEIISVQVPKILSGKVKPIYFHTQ
Assay: AR reporter assay, LNCaP-AR-F876L ANT (antagonist mode)
Assay type: cell-based
Details: for Emax: read-out: LNCaP-AR-F876L ANT MAX % Inh
Excerpt: LNCaP AR (cs) and LNCaP F876L luciferase cell lines were generated by transduction of each cell line (description of cell line generation Joseph J D, Lu N, Qian J, Sensintaffar J, Shao G, Brigham D, Moon M, Maneval E C, Chen I, Darimont B, Hager J H. A clinically relevant androgen receptor mutation confers resistance to second-generation antiandrogens enzalutamide and ARN-509. Cancer Discov 2013; 3:1020-1029) with an Androgen Response Element Firefly Luciferase lentiviral construct at an MOI (multiplicity of infection) of 50 following the manufacturer's instructions (Qiagen). A stable pooled-population cell line was generated using puromycin (Life Technologies) selection at 1:10,000 v/v. The protocol below was used for both cell lines and for testing of the compounds of Formula (I) of the present invention.
LNCaP cells were grown to about 80% confluence, media removed and cells rinsed in Hank's balanced salt solution prior to separation from the plate with 0.05% Trypsin EDTA. Cells were lifted and trypsin negated in complete CSS (charcoal stripped serum) culture media. CSS was maintained on cells for 24 h prior to assay, at which time 5,000 cells/[…] were seeded in Greiner 384 well White/White Tissue Culture Treated Plates and incubated for a further 1-2 hours at 37° C., 5% CO2, prior to addition of 10 μL of 4× Test Compounds (compounds described herein) or Assay Controls (all diluted in complete media containing 10% css). A further 10 μL of 4× R-1881 Agonist Challenge (antagonist assay) or Buffer (agonist assay) was then added (all diluted in complete media containing 10% css). Agonist challenge was at 400 pM for WT assay and 600 pM for F876L assay. Plates containing cells and compounds herein were incubated for a further 20-24 hours at 37° C., 5% CO2 before addition of 40 μL/well of Steady-Glo Luciferase Assay System Reagent (Promega#E2520). After 1 h, plates were read for luminescence on a BMG Pherastar.
Agonist challenge: R-1881 (Metribolone)—Agonist
Antagonist control (low control): 5-(5-(4-((1-Methylpiperidin-4-yl)oxy)phenyl)-8-oxo-6-thioxo-5,7-diazaspiro[3.4]octan-7-yl)-3-(trifluoromethyl)picolinonitrile (WO 2011/103202, EXAMPLE 19, Compound 129, CAS #1332390-06-3).
(1−(Sample RLU−Ave Low Control RLU[10 μM Antagonist Control])/(Ave High Control RLU [400 pM R-1881]−Ave Low Control RLU[10 μM Antagonist Control]))*100.
EC/IC50 calculations were achieved utilizing calculated RLU data and data fitting macros. Data were fit using least-squares methods to the following formula: […]
As used herein: • pIC50 is defined as −Log10(IC50 expressed in [Molar]). • pEC50 is defined as −Log10(EC50 expressed in [Molar]). • MAX % Inh is defined as the maximum % inhibition of R1881 control response observed for a compound over the tested concentration range. • MAX % Stim is defined as the maximum % stimulation (agonist response) observed for a compound over the tested concentration range. • LNCaP-AR-wt ANT refers to the reporter assay using LNCaP cells stably transfected with the Androgen Response Element Firefly Luciferase lentiviral construct and wild-type Androgen Receptor (AR-wt) in Antagonist mode. • LNCaP-AR-wt AG refers to the reporter assay using LNCaP cells stably transfected with the Androgen Response Element Firefly Luciferase lentiviral construct and wild-type Androgen Receptor (AR-wt) in Agonist mode. • LNCaP-AR-F876L ANT refers to the reporter assay using LNCaP cells stably transfected with the Androgen Response Element Firefly Luciferase lentiviral construct and F876L mutant Androgen Receptor (AR-F876L) in Antagonist mode. • LNCaP-AR-F876L AG refers to the reporter assay using LNCaP cells stably transfected with the Androgen Response Element Firefly Luciferase lentiviral construct and F876L mutant Androgen Receptor (AR-F876L) in Agonist mode.

[1] = antagonist mode, 600 pM R-1881 challenge, luciferase reporter, -Log10(IC50 in Molar), read-out: LNCaP-AR-F876L ANT pIC50 (converted)

| Compound | IC50 [1] [nM] | Emax [%] | IC50 [nM] |
| --- | --- | --- | --- |
| Cc1cc(N2C(=O)C3(CCC3)N(c3ccc(OC4CCN(C)CC4)nc3)C2=S)ccc1C#N [Compound 18, 2-Methyl-4-(5-(6-((1-methylpiperidin-4-yl)oxy)pyridin-3-yl)-8-oxo-6-thioxo-5,7-diazaspiro[3.4]octan-7-yl)benzonitrile] | 282 | 99.8 | – |
| COc1cc(N2C(=O)C3(CCC3)N(c3ccc(OC4CCN(C)CC4)cc3)C2=S)ccc1C#N [Compound 19, 2-Methoxy-4-(5-(4-((1-methylpiperidin-4-yl)oxy)phenyl)-8-oxo-6-thioxo-5,7-diazaspiro[3.4]octan-7-yl)benzonitrile] | – | 101 | 83.2 |
| COc1cc(N2C(=O)C3(CCC3)N(c3ccc(OC4CCN(C)CC4)nc3)C2=S)ccc1C#N [Compound 20, 2-Methoxy-4-(5-(6-((1-methylpiperidin-4-yl)oxy)pyridin-3-yl)-8-oxo-6-thioxo-5,7-diazaspiro[3.4]octan-7-yl)benzonitrile] | 145 | 100 | – |
| N#Cc1ccc(N2C(=O)C3(CCC3)N(c3ccc(OC4CCNCC4)cc3)C2=S)cc1Cl [Compound 21, 2-Chloro-4-(8-oxo-5-(4-(piperidin-4-yloxy)phenyl)-6-thioxo-5,7-diazaspiro[3.4]octan-7-yl)benzonitrile] | 200 | 104 | – |
| CN1CCC(Oc2ccc(N3C(=S)N(c4ccc(C#N)c(Cl)c4)C(=O)C34CCC4)cc2)CC1 [Compound 22, 2-Chloro-4-(5-(4-((1-methylpiperidin-4-yl)oxy)phenyl)-8-oxo-6-thioxo-5,7-diazaspiro[3.4]octan-7-yl)benzonitrile] | – | 99.5 | 112 |
| N#Cc1ccc(N2C(=O)C3(CCC3)N(c3ccc(OC4CCNCC4)nc3)C2=S)cc1Cl [Compound 23, 2-Chloro-4-(8-oxo-5-(6-(piperidin-4-yloxy)pyridin-3-yl)-6-thioxo-5,7-diazaspiro[3.4]octan-7-yl)benzonitrile hydrochloride] | – | 103 | 50.1 |
| CN1CCC(Oc2ccc(N3C(=S)N(c4ccc(C#N)c(Cl)c4)C(=O)C34CCC4)cn2)CC1 [Compound 24, 2-Chloro-4-(5-(6-((1-methylpiperidin-4-yl)oxy)pyridin-3-yl)-8-oxo-6-thioxo-5,7-diazaspiro[3.4]octan-7-yl)benzonitrile hydrochloride] | – | 99.8 | 77.6 |
